Reference: article PMC4383003, “Transfer hydrogenation catalysis in cells as a new approach to anticancer drug design” (Nature Communications, 2015)

Assays:
CT-DNA [1] = test: Circular dichroism of CT-DNA; type: binding, calf; conditions: different concentrations of complex 2
Method: Supplementary Figure 4: Circular dichroism spectra of CT-DNA (1 mM) in red and CT-DNA (1 mM)/complex 2 (mol ratio 3:1) in black. Spectra were recorded under the same conditions, using (A) cacodylate buffer (2 mM, pH 7.4) and NaCl (20 mM) at 298 K, (B) PBS buffer (2 mM, pH 7.4) and NaCl (20 mM).
(1 picture or pasted object on this page, not shown here) […]
(§1) the nucleobases.11 Destabilization of DNA can result in a decrease of the melting […]
(§2) In the presence of complex 8, the melting temperature of CT-DNA increased In agreement with the literature, 12 by 14 K, in 2 mM NaCl, 2 mM cacodylate buffer.
(§3) This increase is due to Ru binding to DNA as well as intercalation. 12 However, upon increasing the chloride concentration by ca. 10x (20 mM NaCl) the melting temperature of CT-DNA in the presence of complex 8, increased only by 7 K. This effect has previously been reported and it is attributed to the partial inhibition of hydrolysis, and, therefore, inhibition of coordination to DNA. 12, 13
(§4) Experiments performed in the presence of complex 2, in 2 mM cacodylate buffer and […]
NaCl, no decrease of the melting temperature was observed. These experiments […]
Furthermore, strong binding to DNA can induce chirality in the metal complex, generating a CD signal. 14 CD spectra of CT-DNA in the presence of different concentrations of complex 2 were recorded (Supplementary Figure 4). […]

CT-DNA [2] = test: Thermal stability (melting temperature) of CT-DNA by UV-Vis; type: binding, calf; conditions: for Tm: CT-DNA, 1:3 complex:base pairs, 2 mM cacodylate pH 7.4, 2 h 310 K; for ΔTm: versus free DNA
Method: Supplementary Table 6: Melting temperature (Tm) of CT-DNA in the presence of 8 or complex 2 (ratio 1:3, complex: base pairs-DNA). The reactions were carried out in cacodylate buffer (2 mM, pH 7.4), and samples incubated for 2 h at 310 K. […]
a variation in melting temperature between free DNA and DNA in the presence of the corresponding complex. * […] from free DNA using a T-test analysis. ** p < 0.01 from free DNA using a T-test analysis […]
Thermal stability of CT-DNA
The melting temperature of CT-DNA in the presence and absence of complex 2 [(p-cym)Ru(TsEn)Cl] was determined by UV-Vis spectroscopy (Supplementary Table 6). Higher melting temperatures indicate increased stabilization of the DNA, which is the effect produced by DNA-intercalators and often by direct metal coordination to […]
as §1, §2, §3, §4
NaCl, no decrease of the melting temperature was observed. […]

A2780 cells [3] = test: Induction of necrosis (7-ADD flow cytometry); type: cell-based, human; conditions: A2780, complex 2 in presence and absence of 2 mM sodium formate, 24 h
Method: Flow cytometry analysis of necrosis in A2780 cells caused by exposure to complex 2 and sodium formate was carried out using a Apotosis/Necrosis detection kit (Abcam) according to the manufacturer’s instructions. […] Cells were harvested using trypsin and stained using the membrane-impermeable nuclear dye 7-ADD (Ex/Em 546/647 nm). After staining in the dark, cell pellets were analysed in a Becton Dickinson FACScan Flow Cytometer. For positive-necrosis controls, A2780 cells were exposed to methanol.

A2780 cells [4] = test: Mitochondrial membrane assay (JC-10 flow cytometry); type: cell-based, human; conditions: A2780, complex 2 and sodium formate, 24 h
Method: Analysis of the changes of mitochondrial potential in A2780 cells after exposure to complex 2 and sodium formate was carried out using the Abcam, JC-10 Mitochondrial Membrane Potential Assay kit according to the manufacturer’s instructions. Briefly, 1.0 × 10^6 cells were seeded in six-well plates and left to incubate for 24 h in drug-free medium at 310 K in a humidified atmosphere. […] Supernatants were removed by suction and each well was washed with PBS before detaching the cells using trypsin-EDTA. Staining of the samples was done in flow cytometry tubes protected from light, incubating for 30 min at room temperature. Samples were immediately analysed on a Beckton Dickinson FAC Scan with fluorescence detection. Data were processed using FlowJo software. This experiment included carbonyl cyanide m-chlorophenyl hydrazine as positive control.

9-ethylguanine = test: Binding to model nucleobase 9-ethylguanine by 1H NMR; conditions: D2O, pH* 7.2 ± 0.1, 310 K
Method: Supplementary Table 4: Binding constants for formation of 9-EtG adducts of complexes 1-4 determined by 1H NMR. The experiments were performed in D2O, pH* 7.2 ± 0.1 and 310 K. Equilibrium was reached by the time the first 1H NMR spectrum was recorded (< 10 min). […]
DNA is believed to be the main target for [(bip)Ru(en)Cl]+ (8). Due to the structural similarity of the complexes 1-5 with complex 8, their binding to DNA was […]
Interaction with nucleobases
Initially, model nucleobases, 9-ethylguanine and 9-methyladenine were reacted with complexes 1-4 in D2O, 310 K and pH* 7.2 ± 0.1. The binding of the complexes to 9-EtG or 9-MeA was monitored by 1H-NMR spectroscopy. Peaks for the 9-EtG adducts were observed by the time the first spectrum was recorded (< 5 min after mixing), […]
equilibrium was reached rapidly. The binding constants for formation of 9-EtG adducts determined by NMR were between 60 and 106 mM-1 (Supplementary Table 4). These values are in the same range as that from the ethylenediamine complex [(bip)Ru(en)Cl]+ (K9-EtG= 60.3 mM-1),2 which also binds strongly to DNA.3, 4 The high resolution mass spectrum confirmed the formation of [(η6-arene)Ru(XEn)(9-EtG)]+ (Supplementary Table 5). The interaction of complexes 1-4 with 9-MeA was also investigated, but no reaction was detected by 1H-NMR.
It is well established that N7 of guanine is the preferred nucleotide binding site for many transition metals ions. 2-8 Furthermore, strong and selective binding to N7 of 9-EtG, has been observed for [(η6-arene)Ru(en)Cl]+.3, 4 A pH* titration of […]

Structure (SMILES): Cc1ccc(C(C)C)cc1.Cc1ccc(S(=O)(=O)[N-]CCN)cc1.[Cl-].[Ru+2] [Complex 2, [(p-cym)Ru(TsEn)Cl]]
- changes in CD spectra of CT-DNA (CT-DNA [1]): No changes
- decrease in the melting temperature of CT-DNA (CT-DNA [2]; 2 mM cacodylate buffer and 2 mM NaCl): -269 °C
- Tm (CT-DNA [2]; 2 mM NaCl): 47.2 ± 1.6 °C
- Tm (CT-DNA [2]; 20 mM NaCl): 54.4 ± 0.7 °C
- ΔTm (CT-DNA [2]; 2 mM NaCl): -2.4
- ΔTm (CT-DNA [2]; 20 mM NaCl): -4.9
- induction of necrosis (A2780 cells [3]): no cellular necrosis
- changes in mitochondrial membrane potential (A2780 cells [4]): No changes in the mitochondrial membrane potential were observed
- Binding constant for formation of 9-EtG adducts (9-ethylguanine): 104.9 ± 3.9 mM⁻¹
